Square brackets hold non-standard residues; d marks the D form. Peptide text beside a SMILES is read from it. Cya = N[C@@H](CS(=O)(=O)O)C(=O)O
System: study eye of subjects with intermediate non-exudative AMD
Assay: Best corrected visual acuity (BCVA, letters read) in Dry AMD study
Assay type: in vivo, human
Settings: for Proportion of subjects with gain of at least 8 BCVA letters read: post hoc
Procedure: The subjects in Groups 1 and 2 received the following treatments: Thus, subjects in Group 1 received an initial sham injection in the study eye followed by a single 1 mg dose of risuteganib in the study eye. The subjects in Group 2 received a total of two (2) doses of risuteganib (1 mg per dose) in the study eye. Numerous study assessments were conducted at various time points throughout the study. Included among these study assessments were; refractive eye examinations, determinations of BCVA AND low-luminance BCVA, Lanthony D-15 color vision test, measurement of intraocular pressure (IOP), Indirect ophthalmoscopy/dilated fundus examinations and spectral-domain optical coherence tomography (SD-OCT). Also, blood and saliva samples were obtained from each subject for genetic analysis. The above-listed study assessments were performed at the time points indicated in Table 1, below: For this study, a primary efficacy endpoint was deemed to be the percentage of population with an improvement in BCVA of at least 8 letters (1.5 lines) BCVA.

[1] = Week 4, Group 2 (1 mg IVT day 1 + wk 16), subset gain ≥8 letters at any week, n = 14
[2] = Week 4, Group 2 (1 mg IVT day 1 + wk 16), subset gain ≥8 letters at primary endpoint week, n = 12
[3] = Week 8, Group 2 (1 mg IVT day 1 + wk 16), subset gain ≥8 letters at any week, n = 14
[4] = Week 8, Group 2 (1 mg IVT day 1 + wk 16), subset gain ≥8 letters at primary endpoint week, n = 12
[5] = Week 12, Group 2 (1 mg IVT day 1 + wk 16), subset gain ≥8 letters at any week, n = 14
[6] = Week 12, Group 2 (1 mg IVT day 1 + wk 16), subset gain ≥8 letters at primary endpoint week, n = 12
[7] = Week 16, Group 2 (1 mg IVT day 1 + wk 16), subset gain ≥8 letters at any week, n = 14
[8] = Week 16, Group 2 (1 mg IVT day 1 + wk 16), subset gain ≥8 letters at primary endpoint week, n = 12
[9] = Week 20, Group 1 crossover (sham day 1, 1 mg IVT wk 16), subset gain ≥8 letters at any week, n = 3
[10] = Week 20, Group 1 crossover (sham day 1, 1 mg IVT wk 16), subset gain ≥8 letters at primary endpoint week, n = 2
[11] = Week 20, Group 2 (1 mg IVT day 1 + wk 16), subset gain ≥8 letters at any week, n = 14
[12] = Week 20, Group 2 (1 mg IVT day 1 + wk 16), subset gain ≥8 letters at primary endpoint week, n = 12
[13] = Week 24, Group 1 crossover (sham day 1, 1 mg IVT wk 16), subset gain ≥8 letters at any week, n = 3
[14] = Week 24, Group 1 crossover (sham day 1, 1 mg IVT wk 16), subset gain ≥8 letters at primary endpoint week, n = 2
[15] = Week 24, Group 2 (1 mg IVT day 1 + wk 16), subset gain ≥8 letters at any week, n = 14
[16] = Week 24, Group 2 (1 mg IVT day 1 + wk 16), subset gain ≥8 letters at primary endpoint week, n = 12
[17] = Week 28, Group 1 crossover (sham day 1, 1 mg IVT wk 16), subset gain ≥8 letters at any week, n = 3
[18] = Week 28, Group 1 crossover (sham day 1, 1 mg IVT wk 16), subset gain ≥8 letters at primary endpoint week, n = 2
[19] = Week 28, Group 2 (1 mg IVT day 1 + wk 16), n = 25
[20] = Week 28, Group 2 (1 mg IVT day 1 + wk 16), subset gain ≥8 letters at any week, n = 14
[21] = Week 28, Group 2 (1 mg IVT day 1 + wk 16), subset gain ≥8 letters at primary endpoint week, n = 12
[22] = Week 28 vs baseline, Group 2 (1 mg IVT day 1 + wk 16), n = 25
[23] = Week 32, Group 1 crossover (sham day 1, 1 mg IVT wk 16), subset gain ≥8 letters at any week, n = 3
[24] = Week 32, Group 1 crossover (sham day 1, 1 mg IVT wk 16), subset gain ≥8 letters at primary endpoint week, n = 2
[25] = Week 32, Group 2 (1 mg IVT day 1 + wk 16), subset gain ≥8 letters at any week, n = 14
[26] = Week 32, Group 2 (1 mg IVT day 1 + wk 16), subset gain ≥8 letters at primary endpoint week, n = 12
[27] = risuteganib eyes with geographic atrophy in foveal center at baseline (n = 2)
[28] = risuteganib eyes with no geographic atrophy in foveal center at baseline (n = 23)

C[C@@H](O)[C@H](NC(=O)[C@H](CS(=O)(=O)O)NC(=O)CNC(=O)[C@H](CCCNC(=N)N)NC(=O)CN)C(=O)N1CCC[C@H]1C(=O)O [risuteganib, Glycyl-L-arginylglycyl-3-sulfo-L-alanyl-L-threonyl-L-proline] (H-GRG[Cya]TP-OH)
Time of peak effect after treatment (BCVA, after each 1 mg intravitreal dose): 12 weeks
Proportion of subjects with gain of at least 8 BCVA letters read (Group 2, GA Subgroup (GA in central 6-mm subfield)): 40%
Proportion of subjects with gain of at least 8 BCVA letters read (Group 2, No GA Subgroup (no GA in central 6-mm subfield)): 80%
BCVA change in letters read, mean [1]: 4.0 letters read
BCVA change in letters read, median [1]: 3.0 letters read
BCVA letters read, mean [1]: 66.5 letters read
BCVA letters read, median [1]: 67.0 letters read
BCVA change in letters read, mean [2]: 4.1 letters read
BCVA change in letters read, median [2]: 3.0 letters read
BCVA letters read, mean [2]: 67.0 letters read
BCVA letters read, median [2]: 68.5 letters read
BCVA change in letters read, mean [3]: 5.8 letters read
BCVA change in letters read, median [3]: 5.5 letters read
BCVA letters read, mean [3]: 68.3 letters read
BCVA letters read, median [3]: 71.0 letters read
BCVA change in letters read, mean [4]: 5.6 letters read
BCVA change in letters read, median [4]: 5.5 letters read
BCVA letters read, mean [4]: 68.5 letters read
BCVA letters read, median [4]: 72.0 letters read
BCVA change in letters read, mean [5]: 7.1 letters read
BCVA change in letters read, median [5]: 5.5 letters read
BCVA letters read, mean [5]: 69.6 letters read
BCVA letters read, median [5]: 69.5 letters read
BCVA change in letters read, mean [6]: 7.7 letters read
BCVA change in letters read, median [6]: 5.5 letters read
BCVA letters read, mean [6]: 70.6 letters read
BCVA letters read, median [6]: 72.0 letters read
BCVA change in letters read, mean [7]: 6.4 letters read
BCVA change in letters read, median [7]: 8.0 letters read
BCVA letters read, mean [7]: 68.9 letters read
BCVA letters read, median [7]: 69.5 letters read
BCVA change in letters read, mean [8]: 6.3 letters read
BCVA change in letters read, median [8]: 8.0 letters read
BCVA letters read, mean [8]: 69.2 letters read
BCVA letters read, median [8]: 70.5 letters read
BCVA change in letters read, mean [9]: 2.0 letters read
BCVA change in letters read, median [9]: 0.0 letters read
BCVA letters read, mean [9]: 71.7 letters read
BCVA letters read, median [9]: 75.0 letters read
BCVA change in letters read, mean [10]: 0.0 letters read
BCVA change in letters read, median [10]: 0.0 letters read
BCVA letters read, mean [10]: 70.0 letters read
BCVA letters read, median [10]: 70.0 letters read
BCVA change in letters read, mean [11]: 9.8 letters read
BCVA change in letters read, median [11]: 10.0 letters read
BCVA letters read, mean [11]: 72.3 letters read
BCVA letters read, median [11]: 74.5 letters read
BCVA change in letters read, mean [12]: 11.3 letters read
BCVA change in letters read, median [12]: 10.0 letters read
BCVA letters read, mean [12]: 74.2 letters read
BCVA letters read, median [12]: 75.0 letters read
BCVA change in letters read, mean [13]: 8.7 letters read
BCVA change in letters read, median [13]: 10.0 letters read
BCVA letters read, mean [13]: 78.3 letters read
BCVA letters read, median [13]: 79.0 letters read
BCVA change in letters read, mean [14]: 8.0 letters read
BCVA change in letters read, median [14]: 8.0 letters read
BCVA letters read, mean [14]: 78.0 letters read
BCVA letters read, median [14]: 78.0 letters read
BCVA change in letters read, mean [15]: 10.2 letters read
BCVA change in letters read, median [15]: 9.5 letters read
BCVA letters read, mean [15]: 72.7 letters read
BCVA letters read, median [15]: 74.5 letters read
BCVA change in letters read, mean [16]: 11.4 letters read
BCVA change in letters read, median [16]: 10.0 letters read
BCVA letters read, mean [16]: 74.3 letters read
BCVA letters read, median [16]: 75.5 letters read
BCVA change in letters read, mean [17]: 8.0 letters read
BCVA change in letters read, median [17]: 9.0 letters read
BCVA letters read, mean [17]: 77.7 letters read
BCVA letters read, median [17]: 74.0 letters read
BCVA change in letters read, mean [18]: 9.5 letters read
BCVA change in letters read, median [18]: 9.5 letters read
BCVA letters read, mean [18]: 79.5 letters read
BCVA letters read, median [18]: 79.5 letters read
BCVA letters read at primary endpoint week, mean [19]: 70.5 letters read
BCVA letters read at primary endpoint week, median [19]: 71.0 letters read
BCVA change in letters read, mean [20]: 11.4 letters read
BCVA change in letters read, median [20]: 11.5 letters read
BCVA letters read, mean [20]: 73.9 letters read
BCVA letters read, median [20]: 74.5 letters read
BCVA change in letters read, mean [21]: 12.8 letters read
BCVA change in letters read, median [21]: 12.0 letters read
BCVA letters read, mean [21]: 75.7 letters read
BCVA letters read, median [21]: 75.5 letters read
BCVA change in letters read at primary endpoint week, mean [22]: 6.1 letters read
BCVA change in letters read at primary endpoint week, median [22]: 6.0 letters read
BCVA change in letters read, mean [23]: 6.3 letters read
BCVA change in letters read, median [23]: 6.0 letters read
BCVA letters read, mean [23]: 76.0 letters read
BCVA letters read, median [23]: 75.0 letters read
BCVA change in letters read, mean [24]: 6.5 letters read
BCVA change in letters read, median [24]: 6.5 letters read
BCVA letters read, mean [24]: 76.5 letters read
BCVA letters read, median [24]: 76.5 letters read
BCVA change in letters read, mean [25]: 8.2 letters read
BCVA change in letters read, median [25]: 9.5 letters read
BCVA letters read, mean [25]: 70.7 letters read
BCVA letters read, median [25]: 73.0 letters read
BCVA change in letters read, mean [26]: 9.5 letters read
BCVA change in letters read, median [26]: 10.5 letters read
BCVA letters read, mean [26]: 72.4 letters read
BCVA letters read, median [26]: 74.0 letters read
≥10 Letter Improvement in Visual Acuity, % [27]: (50) %
≥15 Letter Improvement in Visual Acuity, % [27]: (0) %
≥10 Letter Improvement in Visual Acuity, % [28]: (30) %
≥15 Letter Improvement in Visual Acuity, % [28]: (22) %
